Our source for the melting point and IC50 values is patent publication US6455520B1, “Benzamide derivatives and their use as cytokine inhibitors” (Astra Zeneca AB, priority 1998, dated 2002).

In one data set the target is T1, p38α (Homo sapiens, UniProt Q16539).
T1 construct: c-myc (N); 6His (N); made in house; host or cells: E. coli (PET vectors)
In words: In vitro enzyme assay, p38α. The data set is classed as biochemical. As to conditions: read-out: IC50 against p38α. How it is done: The ability of compounds of the invention to inhibit the enzyme p38 kinase was assessed. Activity of test compounds against each of the p38α and p38β isoforms of the enzyme was determined.
Human recombinant MKK6 (GenBank Accesion Number G1209672) was isolated from Image clone 45578 (Genomics, 1996, 33, 151) and utilised to produce protein in the form of a GST fusion protein in a pGEX vector using analogous procedures to those disclosed by J. Han et al., Journal of Biological Chemistry, 1996, 271, 2886-2891. p38α (GenBank Accession Number G529039) and p38β (GenBank Accession Number G1469305) were isolated by PCR amplification of human lymphoblastoid cDNA (GenBank Accession Number GM1416) and human foetal brain cDNA [synthesised from mRNA (Clontech, catalogue no. 6525-1) using a Gibco superscript cDNA synthesis kit] respectively using oligonucleotides designed for the 5′ and 3′ ends of the human p38α and p38β genes using analogous procedures to those described by J. Han et al., Biochimica et Biophysica Acta, 1995, 1265, 224-227 and Y. Jiang et al., Journal of Biological Chemistry, 1996, 271, 17920-17926.
Both p38 protein isoforms were expressed in e coli in PET vectors. Human recombinant p38α and p38β isoforms were produced as 5′ c-myc, 6His tagged proteins. Both MKK6 and the p38 proteins were purified using standard protocols: the GST MKK6 was purified using a glutathione sepharose column and the p38 proteins were purified using nickel chelate columns.
The p38 enzymes were activated prior to use by incubation with MKK6 for 3 hours at 30° C. The unactivated coli-expressed MKK6 retained sufficient activity to fully activate both isoforms of p38. The activation incubate comprised p38α (10 μl of 10 mg/ml) or p38β (10 μl of 5 mg/ml) together with MKK6 (10 μl of 1 mg/ml), ‘Kinase buffer’ [100 μl; pH 7.4 buffer comprising Tris (50 mM), EGTA (0.1 mM), sodium orthovanadate (0.1 mM) and β-mercaptoethanol (0.1%)] and MgATP (30 μl of 50 mM Mg(OCOCH3)2 and 0.5 mM ATP). This produced enough activated p38 enzyme for 3 Microtiter plates.
Test compounds were solubilised in DMSO and 10 μl of a 1:10 diluted sample in ‘Kinase Buffer’ was added to a well in a Microtiter plate. For single dose testing, the compounds were tested at 10 μM. ‘Kinase Assay Mix’ [30 μl; comprising Myelin Basic Protein (Gibco BRL cat. no. 1322B-010; 1 ml of a 3.33 mg/ml solution in water), activated p38 enzyme (50 μl ) and ‘Kinase Buffer’ (2 ml)] was then added followed by ‘Labelled ATP’ [10 μl; comprising 50 μM ATP, 0.1 μCi ^33P ATP (Amersham International cat. no. BF1000) and 50 mM Mg(OCOCH3)2]. The plates were incubated at room temperature with gentle agitation. Plates containing p38α were incubated for 90 min and plates containing p38β P were incubated for 45 min. Incubation was stopped by the addition of 50 μl of 20% trichloroacetic acid (TCA). The precipitated protein was phosphorylated by p38 kinase and test compounds were assessed for their ability to inhibit this phosphorylation. The plates were filtered using a Canberra Packard Unifilter and washed with 2% TCA, dried overnight and counted on a Top Count scintillation counter.
Test compounds were tested initially at a single dose and active compounds were retested to allow IC50 values to be determined.

For data set [1], the system named is TNFα production by human peripheral blood mononuclear cells. Briefly: PBMC test: inhibition of LPS-stimulated TNFα production. Type of data set: cell-based. How it is done:
The ability of compounds of this invention to inhibit TNFα production was assessed by using human peripheral blood mononuclear cells which synthesise and secrete TNFα when stimulated with lipopolysaccharide.
Peripheral blood mononuclear cells (PBMC) were isolated from heparinised (10 units/ml heparin) human blood by density centrifugation (Lymphoprep™; Nycomed). Mononuclear cells were resuspended in culture medium [RPMI 1640 medium (Gibco) supplemented with 50 units/ml penicillin, 50 μg/ml streptomycin, 2 mM glutamine and 1% heat-inactivated human AB serum (Sigma H-1513)]. Compounds were solubilised in DMSO at a concentration of 50 mM, diluted 1:100 in culture medium and subsequently serial dilutions were made in culture medium containing 1% DMSO. PBMCs (2.4×10^5 cells in 160 μl culture medium) were incubated with 20 μl of varying concentrations of test compound (triplicate cultures) or 20 μl culture medium containing 1% DMSO (control wells) for 30 minutes at 37° C. in a humidified (5%CO2/95% air) incubator (Falcon 3072; 96 well flat-bottom tissue culture plates). 20 μl lipopolysaccharide [LPS E.Coli 0111:B4 (Sigma L-4130), final concentration 10 μg/ml] solubilised in culture medium was added to appropriate wells. 20 μl culture medium was added to “medium alone” control wells. Six “LPS alone” and four “medium alone” controls were included on each 96 well plate. Varying concentrations of a known TNFα inhibitor were included in each test, i.e. an inhibitor of the PDE Type IV enzyme (for example see Semmler, J. Wachtel. H and Endres, S., Int. J. Immunopharmac. (1993), 15(3), 409-413) or an inhibitor of pro TNFα convertase (for example, see McGeehan, G. M. et al. Nature (1994) 370, 558-561). Plates were incubated for 7 hours at 37° C. (humidified incubator) after which 100 μl of the supernatant was removed from each well and stored at −70° C. (96 well round-bottom plates; Corning 25850). TNFα levels were determined in each sample using a human TNFα ELISA (see WO92/10190 and Current Protocols in Molecular Biology, vol 2 by Frederick M. Ausbel et al., John Wiley and Sons Inc.).
% inhibition=(LPS alone−medium alone)−(test concentration−medium alone)/(LPS alone−medium alone)×100

Data set [2] deals with TNFα production in human whole blood. Briefly: Human Whole Blood test: inhibition of LPS-stimulated TNFα production. The data set is classed as cell-based. Here is the method:
The ability of the compounds of this invention to inhibit TNFα production was also assessed in a human whole blood assay. Human whole blood secretes TNFα when stimulated with LPS. This property of blood forms the basis of an assay which is used as a secondary test for compounds which profile as active in the PBMC test.
Heparinised (10 units/ml) human blood was obtained from volunteers. 160 μl whole blood were added to 96 well round-bottom plates (Corning 25850). Compounds were solubilised and serially diluted in RPMI 1640 medium (Gibco) supplemented with 50 units/ml penicillin, 50 μg/ml streptomycin and 2 mM glutamine, as detailed above. 20 μl of each test concentration was added to appropriate wells (triplicate cultures). 20 μl of RPMI 1640 medium supplemented with antibiotics and glutamine was added to control wells. Plates were incubated for 30 minutes at 37° C. (humidified incubator), prior to addition of 20 μl LPS (final concentration 10 μg/ml). RPMI 1640 medium was added to control wells. Six “LPS alone” and four “medium alone” controls were included on each plate. A known TNFα synthesis/secretion inhibitor was included in each test. Plates were incubated for 6 hours at 37° C. (humidified incubator). […] TNFα levels were measured by ELISA (see WO92/10190 and Current Protocols in Molecular Biology, vol 2 by Frederick M. Ausbel et al., John Wiley and Sons Inc.). […]

pIC50: −log10 of the molar value.

T1 sequence (Q16539 whole entry): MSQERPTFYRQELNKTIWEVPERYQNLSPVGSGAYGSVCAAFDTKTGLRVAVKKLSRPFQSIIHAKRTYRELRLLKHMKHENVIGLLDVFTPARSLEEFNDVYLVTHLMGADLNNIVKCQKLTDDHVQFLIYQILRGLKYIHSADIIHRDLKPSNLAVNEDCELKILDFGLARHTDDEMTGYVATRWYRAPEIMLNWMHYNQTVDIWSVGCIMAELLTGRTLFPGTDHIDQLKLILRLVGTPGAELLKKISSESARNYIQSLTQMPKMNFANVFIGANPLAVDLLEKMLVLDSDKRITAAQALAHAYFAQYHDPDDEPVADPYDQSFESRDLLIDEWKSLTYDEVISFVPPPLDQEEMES

By melting point is commonly meant the temperature of the solid-liquid transition. For the compound `Cc1ccc(NC(=O)c2ccc3ncccc3c2)cc1NC(=O)c1cccc(OCCN2CCOCC2)c1` [Example 13, N-{3-[3-(2-morpholinoethoxy)benzamido]-4-methylphenyl}quinoline-6-carboxamide], the melting point was 216 to 217 °C.
As usually defined, the pIC50 is the IC50 on a negative log10 scale, so that one unit is a factor of ten. Consider `CCN(CC)Cc1ccc(C(=O)Nc2cc(NC(=O)c3ccnc(N4CCOCC4)c3)ccc2C)cc1` [N-[3-(4-diethylaminomethylbenzamido)-4-methylphenyl]-2-morpholinopyridine-4-carboxamide], for which the pIC50 is around 6.70 at p38α, above 6.30 in data set [1] and around 5.00 in data set [2].
Turning to `Cc1ccc(NC(=O)c2ccnc(N3CCOCC3)c2)cc1NC(=O)c1cccc(CN2CCN(C)CC2)c1` [N-{3-[3-(4-methylpiperazin-1-ylmethyl)benzamido]-4-methylphenyl}-2-morpholinopyridine-4-carboxamide], the pIC50 at p38α is around 7.00; in data set [1] it was above 6.30; in data set [2] it was around 5.15.
As to `Cc1ccc(NC(=O)c2ccnc(N3CCCC3)c2)cc1NC(=O)c1cccc(CN2CCN(C)CC2)c1` [N-{3-[3-(4-methylpiperazin-1-ylmethyl)benzamido]-4-methylphenyl}-2-pyrrolidin-1-ylpyridine-4-carboxamide], the values for the pIC50 (on p38α; in data set [1]) were around 7.00 and above 6.30, respectively.
On to `Cc1ccc(NC(=O)c2ccco2)cc1NC(=O)c1cccc(CN2CCN(C)CC2)c1` [N-{4-methyl-3-[3-(4-methylpiperazin-1-ylmethyl)benzamido]phenyl}furan-2-carboxamide], for which the pIC50 is around 6.00 at p38α and around 5.40 in data set [1].
For `Cc1ccc(NC(=O)c2ccno2)cc1NC(=O)c1cccc(CN2CCN(C)CC2)c1` [N-{4-methyl-3-[3-(4-methylpiperazin-1-ylmethyl)benzamido]phenyl}isoxazole-5-carboxamide], the negative-log IC50 (pIC50) at p38α is around 6.10; in data set [1], around 6.00.
